In experiment [1] the target is Beta-1 adrenergic receptor (Homo sapiens, UniProt P08588). In kind it is functional.
The target in experiment [2] is T1, Type-1 angiotensin II receptor (Homo sapiens, UniProt P30556).
T1 sequence (P30556 whole entry): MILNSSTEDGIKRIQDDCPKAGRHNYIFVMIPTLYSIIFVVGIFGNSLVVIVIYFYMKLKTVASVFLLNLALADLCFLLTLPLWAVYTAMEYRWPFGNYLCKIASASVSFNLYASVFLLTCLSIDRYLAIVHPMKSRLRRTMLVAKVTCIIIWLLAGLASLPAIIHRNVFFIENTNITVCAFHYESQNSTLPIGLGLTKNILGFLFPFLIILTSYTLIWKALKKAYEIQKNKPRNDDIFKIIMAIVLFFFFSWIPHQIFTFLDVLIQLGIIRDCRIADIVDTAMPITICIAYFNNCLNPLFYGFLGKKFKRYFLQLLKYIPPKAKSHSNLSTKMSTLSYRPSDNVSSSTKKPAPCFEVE

For experiment [3], the target named is T2, Muscarinic acetylcholine receptor M1 (Homo sapiens, UniProt P11229).
T2 sequence (P11229 whole entry): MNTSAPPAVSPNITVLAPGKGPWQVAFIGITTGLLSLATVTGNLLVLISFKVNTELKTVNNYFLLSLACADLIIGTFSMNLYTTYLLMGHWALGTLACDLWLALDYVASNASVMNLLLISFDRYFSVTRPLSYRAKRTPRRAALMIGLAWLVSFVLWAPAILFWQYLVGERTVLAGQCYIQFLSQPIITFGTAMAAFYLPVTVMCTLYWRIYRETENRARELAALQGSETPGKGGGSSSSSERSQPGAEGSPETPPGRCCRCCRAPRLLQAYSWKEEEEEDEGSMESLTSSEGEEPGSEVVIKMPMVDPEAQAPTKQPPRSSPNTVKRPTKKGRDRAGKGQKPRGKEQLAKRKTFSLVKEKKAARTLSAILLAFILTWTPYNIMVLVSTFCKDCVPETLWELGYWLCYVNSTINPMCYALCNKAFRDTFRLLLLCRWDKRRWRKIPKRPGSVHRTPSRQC
In kind it is functional.

In experiment [4] the target is T3, Muscarinic acetylcholine receptor M2 (Homo sapiens, UniProt P08172).
T3 sequence (P08172 whole entry): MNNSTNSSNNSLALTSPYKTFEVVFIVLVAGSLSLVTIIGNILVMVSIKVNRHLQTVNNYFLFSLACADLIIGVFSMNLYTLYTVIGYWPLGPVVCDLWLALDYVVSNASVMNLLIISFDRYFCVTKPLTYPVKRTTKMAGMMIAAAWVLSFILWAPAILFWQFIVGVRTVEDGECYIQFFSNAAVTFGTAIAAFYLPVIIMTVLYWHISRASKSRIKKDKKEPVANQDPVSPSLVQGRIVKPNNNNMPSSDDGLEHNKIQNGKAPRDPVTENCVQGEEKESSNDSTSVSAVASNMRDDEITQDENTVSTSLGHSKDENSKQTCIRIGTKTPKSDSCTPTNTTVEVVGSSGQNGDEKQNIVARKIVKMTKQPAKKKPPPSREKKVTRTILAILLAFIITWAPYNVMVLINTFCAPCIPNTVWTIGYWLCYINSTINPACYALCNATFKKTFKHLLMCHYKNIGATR
In kind it is functional, cell-based.

For experiment [5], the target named is Neuronal acetylcholine receptor subunit alpha-4 (Homo sapiens, UniProt P43681).
Experiment [6] deals with Gamma-aminobutyric acid receptor subunit alpha-1 (Rattus norvegicus, UniProt P62813). In kind it is functional.
Experiment [7] concerns the target T4, 5-hydroxytryptamine receptor 2C (Homo sapiens, UniProt P28335).
T4 sequence (P28335 whole entry): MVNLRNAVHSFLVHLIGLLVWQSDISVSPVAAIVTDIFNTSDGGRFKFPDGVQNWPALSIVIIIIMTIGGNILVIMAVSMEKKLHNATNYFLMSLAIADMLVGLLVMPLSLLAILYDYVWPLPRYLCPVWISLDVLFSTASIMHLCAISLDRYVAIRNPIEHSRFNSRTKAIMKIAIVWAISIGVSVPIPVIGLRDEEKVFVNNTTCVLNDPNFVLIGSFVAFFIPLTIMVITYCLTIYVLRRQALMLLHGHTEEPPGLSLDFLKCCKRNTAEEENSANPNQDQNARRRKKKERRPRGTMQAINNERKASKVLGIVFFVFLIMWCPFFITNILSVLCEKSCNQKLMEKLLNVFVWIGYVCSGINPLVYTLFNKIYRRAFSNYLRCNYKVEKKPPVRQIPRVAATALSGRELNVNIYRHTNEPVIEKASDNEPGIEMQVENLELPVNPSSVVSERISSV

The target in experiment [8] is Voltage-gated inwardly rectifying potassium channel KCNH2 (Homo sapiens, UniProt Q12809). In kind it is functional. Conditions: read-out: AC50.
The target in experiment [9] is T5, Equilibrative nucleoside transporter 1 (Homo sapiens, UniProt Q99808).
T5 sequence (Q99808 whole entry): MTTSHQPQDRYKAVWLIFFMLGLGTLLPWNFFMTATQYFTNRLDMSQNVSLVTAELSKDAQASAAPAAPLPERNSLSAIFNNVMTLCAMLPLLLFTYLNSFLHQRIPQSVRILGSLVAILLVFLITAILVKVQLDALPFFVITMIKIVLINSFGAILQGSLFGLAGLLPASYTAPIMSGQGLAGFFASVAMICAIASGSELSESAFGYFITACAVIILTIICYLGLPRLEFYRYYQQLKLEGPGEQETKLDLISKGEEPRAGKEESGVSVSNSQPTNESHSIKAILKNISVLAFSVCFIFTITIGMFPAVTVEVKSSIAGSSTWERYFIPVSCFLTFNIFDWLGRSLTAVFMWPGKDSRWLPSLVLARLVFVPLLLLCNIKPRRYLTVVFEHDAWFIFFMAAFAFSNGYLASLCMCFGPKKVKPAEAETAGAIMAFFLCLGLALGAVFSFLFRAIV
Note: assay procedure not described here.

Gamma-aminobutyric acid receptor subunit alpha-1, sequence (P62813 whole entry): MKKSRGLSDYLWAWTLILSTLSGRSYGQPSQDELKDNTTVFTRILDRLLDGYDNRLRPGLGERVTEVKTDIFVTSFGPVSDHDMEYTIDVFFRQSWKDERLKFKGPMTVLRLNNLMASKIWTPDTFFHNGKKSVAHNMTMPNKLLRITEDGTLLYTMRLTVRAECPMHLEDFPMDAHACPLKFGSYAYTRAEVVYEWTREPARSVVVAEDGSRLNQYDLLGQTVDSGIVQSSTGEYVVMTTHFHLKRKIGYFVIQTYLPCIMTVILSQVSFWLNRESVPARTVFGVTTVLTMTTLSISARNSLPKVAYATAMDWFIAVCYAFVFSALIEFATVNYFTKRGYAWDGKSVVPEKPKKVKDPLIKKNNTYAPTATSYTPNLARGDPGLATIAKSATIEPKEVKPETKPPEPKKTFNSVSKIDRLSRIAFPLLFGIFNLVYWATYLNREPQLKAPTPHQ
Beta-1 adrenergic receptor, sequence (P08588 whole entry): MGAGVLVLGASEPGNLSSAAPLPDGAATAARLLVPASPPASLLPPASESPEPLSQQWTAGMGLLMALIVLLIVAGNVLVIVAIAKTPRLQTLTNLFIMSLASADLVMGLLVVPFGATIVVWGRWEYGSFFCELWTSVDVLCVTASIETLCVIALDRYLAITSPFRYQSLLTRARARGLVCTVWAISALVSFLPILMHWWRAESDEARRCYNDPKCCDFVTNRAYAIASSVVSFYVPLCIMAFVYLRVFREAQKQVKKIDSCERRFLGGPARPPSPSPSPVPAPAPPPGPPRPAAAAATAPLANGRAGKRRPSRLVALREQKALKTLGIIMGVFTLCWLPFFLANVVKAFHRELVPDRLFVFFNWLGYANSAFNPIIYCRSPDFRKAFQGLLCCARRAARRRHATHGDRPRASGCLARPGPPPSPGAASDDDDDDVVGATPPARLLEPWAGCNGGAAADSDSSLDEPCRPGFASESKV
Neuronal acetylcholine receptor subunit alpha-4, sequence (P43681 whole entry): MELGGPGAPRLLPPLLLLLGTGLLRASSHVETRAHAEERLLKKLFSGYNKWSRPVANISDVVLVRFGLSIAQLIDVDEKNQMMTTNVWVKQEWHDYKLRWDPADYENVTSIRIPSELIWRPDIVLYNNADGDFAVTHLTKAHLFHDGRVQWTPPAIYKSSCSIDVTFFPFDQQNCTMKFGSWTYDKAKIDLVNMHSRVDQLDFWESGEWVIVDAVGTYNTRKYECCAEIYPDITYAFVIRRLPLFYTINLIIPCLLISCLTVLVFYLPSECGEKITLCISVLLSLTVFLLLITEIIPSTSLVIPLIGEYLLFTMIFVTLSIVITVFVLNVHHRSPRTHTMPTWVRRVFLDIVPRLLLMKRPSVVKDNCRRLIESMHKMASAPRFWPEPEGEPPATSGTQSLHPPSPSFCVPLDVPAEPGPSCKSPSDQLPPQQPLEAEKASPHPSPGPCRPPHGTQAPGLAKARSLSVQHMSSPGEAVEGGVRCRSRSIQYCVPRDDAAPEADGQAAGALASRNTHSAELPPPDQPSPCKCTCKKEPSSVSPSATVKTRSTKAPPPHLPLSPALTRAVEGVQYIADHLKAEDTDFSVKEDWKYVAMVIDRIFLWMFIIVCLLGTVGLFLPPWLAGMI
Voltage-gated inwardly rectifying potassium channel KCNH2, sequence (Q12809 whole entry): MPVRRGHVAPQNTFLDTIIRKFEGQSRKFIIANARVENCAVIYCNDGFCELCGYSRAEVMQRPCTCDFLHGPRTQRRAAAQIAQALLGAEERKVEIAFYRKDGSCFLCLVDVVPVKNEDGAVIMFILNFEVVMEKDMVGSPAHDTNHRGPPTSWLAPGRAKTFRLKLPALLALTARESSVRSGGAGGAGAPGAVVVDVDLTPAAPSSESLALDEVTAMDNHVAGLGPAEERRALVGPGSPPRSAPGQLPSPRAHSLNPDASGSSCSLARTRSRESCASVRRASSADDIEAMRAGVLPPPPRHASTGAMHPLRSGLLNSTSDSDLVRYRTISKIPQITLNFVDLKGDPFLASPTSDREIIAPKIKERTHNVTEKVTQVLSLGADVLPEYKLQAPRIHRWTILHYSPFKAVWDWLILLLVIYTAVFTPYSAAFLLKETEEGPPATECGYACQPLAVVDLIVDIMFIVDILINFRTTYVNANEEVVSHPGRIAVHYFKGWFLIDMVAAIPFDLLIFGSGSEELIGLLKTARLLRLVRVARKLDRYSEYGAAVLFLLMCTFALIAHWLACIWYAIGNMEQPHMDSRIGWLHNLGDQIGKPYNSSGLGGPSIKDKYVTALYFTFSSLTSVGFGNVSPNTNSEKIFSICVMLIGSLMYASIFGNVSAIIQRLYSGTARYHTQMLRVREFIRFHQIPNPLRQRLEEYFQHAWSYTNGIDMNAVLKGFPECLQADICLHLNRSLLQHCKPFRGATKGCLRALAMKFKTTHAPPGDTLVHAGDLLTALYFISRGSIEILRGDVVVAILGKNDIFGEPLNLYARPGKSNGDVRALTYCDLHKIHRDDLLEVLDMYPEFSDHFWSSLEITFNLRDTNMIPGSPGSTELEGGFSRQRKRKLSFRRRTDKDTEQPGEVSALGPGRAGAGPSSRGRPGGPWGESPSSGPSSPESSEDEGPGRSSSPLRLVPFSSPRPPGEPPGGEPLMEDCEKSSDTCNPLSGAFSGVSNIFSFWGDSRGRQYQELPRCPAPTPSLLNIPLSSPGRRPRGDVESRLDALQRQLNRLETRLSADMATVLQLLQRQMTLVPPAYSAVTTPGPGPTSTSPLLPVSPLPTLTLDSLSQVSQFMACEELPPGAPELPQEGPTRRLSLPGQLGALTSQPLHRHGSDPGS

As a reminder, the AC50 is the concentration giving half of the maximal activity seen. Regarding `CCOCC(O)COc1ccc(NC(=O)CC[S+](C)C)cc1` (centres undefined), the AC50 in experiment [1], in experiment [2], in [3], in experiment [4], in [5] and in experiment [6] was above 30 µM in each case. Further, the AC50 in experiment [7], in [8] and in experiment [9] was above 30 µM in each case.

Take `CCC[C@@]1(CCc2ccccc2)CC(O)=C([C@H](CC)c2cccc(NS(=O)(=O)c3ccc(C(F)(F)F)cn3)c2)C(=O)O1`: the AC50 in [1] is above 30 µM; in [2] it was 11 µM; in experiment [3] it was above 30 µM; in experiment [4] it was above 30 µM; in experiment [5], above 30 µM; in experiment [6], above 30 µM. The AC50 in experiment [7] and in experiment [9] was above 30 µM each time.

Turning to `CN1CC2c3ccccc3Oc3ccc(Cl)cc3C2C1` (centres undefined) [ASENAPINE], the AC50 in experiment [1] was above 30 µM; in experiment [2], above 30 µM; in experiment [3] it was above 30 µM; in experiment [4], 19 µM; in experiment [5], above 30 µM; in [7] it was 0.0006 µM. Besides, the AC50 in experiment [9] was above 30 µM.

As to `Cn1cnc2c(F)c(Nc3ccc(Br)cc3F)c(C(=O)NOCCO)cc21` [BINIMETINIB], the AC50 in experiment [1], in [2], in [3], in experiment [4], in experiment [5] and in experiment [6] was above 30 µM in each case. In addition, the AC50 in experiment [7] and in experiment [9] was above 30 µM in each case.

In the case of `C[C@H](CCC(=O)O)[C@H]1CC[C@H]2[C@@H]3[C@H](O)C[C@@H]4C[C@H](O)CC[C@]4(C)[C@H]3CC[C@]12C` [CHENODIOL], the AC50 in experiment [1], in [2], in experiment [3], in [4], in [5] and in experiment [6] was above 30 µM each time. Moreover, the AC50 in [7], in experiment [8] and in experiment [9] was above 30 µM each time.

Regarding `O=C(O)[C@H]1/C(=C/CO)O[C@@H]2CC(=O)N21` [CLAVULANIC ACID], the AC50 in experiment [1], in [2], in experiment [3], in experiment [4], in [5] and in [6] was above 30 µM in each case. Moreover, the AC50 in experiment [7], in experiment [8] and in experiment [9] was above 30 µM each time.

In the case of `C[C@H](Nc1ncnc2[nH]cnc12)c1cc2cccc(Cl)c2c(=O)n1-c1ccccc1` [DUVELISIB], the AC50 in experiment [1], in [2], in experiment [3], in experiment [4], in [5] and in [6] was above 30 µM in each case. Further, the AC50 in experiment [7] and in [9] was above 30 µM in each case.

Turning to `C[C@@H](O)[C@H]1C(=O)N2C(C(=O)O)=C(SCCN=CN)C[C@H]12` [IMIPENEM ANHYDROUS], the AC50 is above 300 µM in [1]; above 300 µM in experiment [2]; 260 µM in experiment [3]; above 300 µM in [4]; above 300 µM in experiment [5]; above 300 µM in [7]. Moreover, the results for the AC50 in [8] and in [9] were above 30 µM and above 300 µM, respectively.

As to `CO[C@@H]1[C@@H](OC(N)=O)[C@@H](O)[C@H](Oc2ccc3c(O)c(NC(=O)c4ccc(O)c(CC=C(C)C)c4)c(=O)oc3c2C)OC1(C)C` [NOVOBIOCIN], the AC50 in experiment [1], in [2], in experiment [3], in experiment [4], in experiment [5] and in [6] was above 30 µM in each case. In addition, the AC50 in experiment [7] and in experiment [9] was above 30 µM in each case.

Consider `COc1cc2c(cc1OC)C1CC(=O)C(CC(C)C)CN1CC2` (centres undefined) [TETRABENAZINE], for which the AC50 in experiment [1], in experiment [2], in [3], in experiment [4], in experiment [5] and in experiment [6] was above 30 µM throughout. The AC50 in experiment [7], in experiment [8] and in experiment [9] was above 30 µM each time.

Consider `CC(C)(CO)c1cc2cc(NC(=O)C3(c4ccc5c(c4)OC(F)(F)O5)CC3)c(F)cc2n1C[C@@H](O)CO` [TEZACAFTOR], for which the AC50 in experiment [1], in [2], in [3], in [4], in experiment [5] and in experiment [6] was above 30 µM each time. Also, the AC50 in experiment [7], in [8] and in experiment [9] was above 30 µM throughout.

On to `c1cnc2cc3c(cc2n1)[C@@H]1CNC[C@H]3C1` [VARENICLINE], for which the AC50 in experiment [1], in [2], in experiment [3], in experiment [4], in experiment [6] and in experiment [7] was above 30 µM in each case. The AC50 in [8] and in experiment [9] was above 30 µM throughout.

Consider `Nc1c2c(nc3ccccc13)CCCC2O` (centres undefined) [VELNACRINE], for which the AC50 in experiment [1], in [2], in experiment [3], in [4], in experiment [5] and in [6] was above 30 µM each time. The figures for the AC50 in [7], in experiment [8] and in experiment [9] were above 30 µM, 25 µM and above 30 µM, respectively.

The record behind these values is ChEMBL document CHEMBL5291721, “A preclinical secondary pharmacology resource illuminates target-adverse drug reaction associations of marketed drugs” (Nat Commun, 2023).
